# Counter-ions that a name gives are not always drawn. Like-named read-outs stand apart in the source and are kept apart here.
# Test system: HIV
# Experiment: MT4 Assay (anti-HIV activity)
# Assay type: cell-based
# How it was run: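 IC50 values were fitted to 10-point dose-response series (3-4-fold dilutions, range >1000-fold), normalized to no-compound control. CellTiter-Glo read-out was taken after 96 hours in HTLV-1-transformed MT-4 cells. Cytotoxicity was measured in parallel under identical conditions.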
# [1] = Human immunodeficiency virus 1, 96 h, read-out: HIV MT4 Assay IC50, HTLV-1 transformed cell line MT-4, cell titer glo, 10 point dose response curve
SMILES,IC50 [1] [nM],"IC50 (read-out: HIV MT4 Assay IC50, HTLV-1 transformed cell line MT-4, 96 hours, cell titer glo, 10 point dose response curve) [nM]"
"Cc1ccc(-c2c(C(OC(C)(C)C)C(=O)O)n(C)c(=O)c3cc(CC(C)C)ccc23)cc1C (centres unmarked) [Example 172, [(1,1-dimethylethyl)oxy][4-(3,4-dimethylphenyl)-2-methyl-7-(2-methylpropyl)-1-oxo-1,2-dihydro-3-isoquinolinyl]acetic acid]",270,
"Cc1ccc(-c2c(C(OC(C)(C)C)C(=O)O)n(C)c(=O)c3cc(CN)ccc23)cc1C (centres unmarked) [Example 179, [7-(aminomethyl)-4-(3,4-dimethylphenyl)-2-methyl-1-oxo-1,2-dihydro-3-isoquinolinyl][(1,1-dimethylethyl)oxy]acetic acid-TFA salt]",50000,
"Cn1c(C(OC(C)(C)C)C(=O)O)c(-c2ccc3c(c2)OCCC3)c2ccccc2c1=O (centres unmarked) [Example 36, 2-(tert-butoxy)-2-[4-(3,4-dihydro-2H-1-benzopyran-7-yl)-2-methyl-1-oxo-1,2-dihydroisoquinolin-3-yl]acetic acid]",15000,
"Cc1c(-c2c([C@H](OC(C)(C)C)C(=O)O)n(C)c(=O)c3ccccc23)ccc2c1CCCO2 [Example 140, (2S)-2-(tert-butoxy)-2-[2-methyl-4-(5-methyl-3,4-dihydro-2H-1-benzopyran-6-yl)-1-oxo-1,2-dihydroisoquinolin-3-yl]acetic acid]",110,
"Cc1ccc2c(-c3ccc(C)c(C)c3)c(C(OC(C)(C)C)C(=O)O)n(C)c(=O)c2c1 (centres unmarked) [Example 60, 2-(tert-butoxy)-2-[4-(3,4-dimethylphenyl)-2,7-dimethyl-1-oxo-1,2-dihydroisoquinolin-3-yl]acetic acid]",1290,
"Cn1c(C(OC(C)(C)C)C(=O)O)c(-c2ccc3c(c2)CCC(C)(C)O3)c2ccccc2c1=O (centres unmarked) [Example 78, 2-(tert-butoxy)-2-[4-(2,2-dimethyl-3,4-dihydro-2H-1-benzopyran-6-yl)-2-methyl-1-oxo-1,2-dihydroisoquinolin-3-yl]acetic acid]",41600,
"Cc1ccc(-c2c(C(OC(C)(C)C)C(=O)O)n(C)c(=O)c3cc(-c4cccn4C)ccc23)cc1C (centres unmarked) [Example 191, [(1,1′-dimethylethyl)oxy][4-(3,4-dimethylphenyl)-2-methyl-7-(1-methyl-1H-pyrrol-2-yl)-1-oxo-1,2-dihydro-3-isoquinolinyl]acetic acid]",350,
"Cc1c(-c2c(C(OC(C)(C)C)C(=O)O)n(C)c(=O)c3cc(OCc4cc(F)ccc4F)ccc23)ccc2c1CCCO2 (centres unmarked) [Example 95, 2-(tert-butoxy)-2-{7-[(2,5-difluorophenyl)methoxy]-2-methyl-4-(5-methyl-3,4-dihydro-2H-1-benzopyran-6-yl)-1-oxo-1,2-dihydroisoquinolin-3-yl}acetic acid]",90,
"Cc1c(-c2c([C@H](OC(C)(C)C)C(=O)O)n(C)c(=O)c3cc(-c4cccn4C)ccc23)cc(F)c2c1CCCO2 (atropisomer, axis not shown; (M)) [Example 202, (S)(M)-[(1,1-dimethylethyl)oxy][4-(8-fluoro-5-methyl-3,4-dihydro-2H-chromen-6-yl)-2-methyl-7-(1-methyl-1H-pyrrol-2-yl)-1-oxo-1,2-dihydro-3-isoquinolinyl]ethanoic acid]",20,
"Cc1c(-c2c([C@@H](OC(C)(C)C)C(=O)O)n(C)c(=O)c3ccccc23)cc(F)c2c1CCCO2 [Example 161, (2R)-2-(tert-butoxy)-2-[4-(8-fluoro-5-methyl-3,4-dihydro-2H-1-benzopyran-6-yl)-2-methyl-1-oxo-1,2-dihydroisoquinolin-3-yl]acetic acid]",,7210
"Cc1c(-c2c([C@H](OC(C)(C)C)C(=O)O)n(C)c(=O)c3cc(OCc4cccs4)ccc23)ccc2c1CCCO2 [Example 111, (2S)-2-(tert-butoxy)-2-[2-methyl-4-(5-methyl-3,4-dihydro-2H-1-benzopyran-6-yl)-1-oxo-7-(thiophen-2-ylmethoxy)-1,2-dihydroisoquinolin-3-yl]acetic acid]",30,
"COc1cccc(-c2c(C(OC(C)(C)C)C(=O)O)n(C)c(=O)c3ccccc23)c1 (centres unmarked) [Example 15, 2-(tert-butoxy)-2-[4-(3-methoxyphenyl)-2-methyl-1-oxo-1,2-dihydroisoquinolin-3-yl]acetic acid]",8590,
"Cc1c(-c2c([C@H](OC(C)(C)C)C(=O)O)n(C)c(=O)c3cc(-c4ccccc4)ccc23)cc(F)c2c1CCCO2 (atropisomer, axis not shown; (M)) [Example 204, (2S)(M)-[(1,1-dimethylethyl)oxy][4-(8-fluoro-5-methyl-3,4-dihydro-2H-chromen-6-yl)-2-methyl-1-oxo-7-phenyl-1,2-dihydro-3-isoquinolinyl]ethanoic acid]",30,
"Cc1c(-c2c([C@H](OC(C)(C)C)C(=O)O)n(C)c(=O)c3cc(N4CCS(=O)(=O)CC4)ccc23)cc(F)c2c1CCCO2 (atropisomer, axis not shown; (M)) [Example 167, (2S)(M)-[(1,1-dimethylethyl)oxy][7-(1,1-dioxido-4-thiomorpholinyl)-4-(8-fluoro-5-methyl-3,4-dihydro-2H-chromen-6-yl)-2-methyl-1-oxo-1,2-dihydro-3-isoquinolinyl]ethanoic acid]",3710,
"COc1cccc(-c2ccc3c(-c4cc(F)c5c(c4C)CCCO5)c([C@H](OC(C)(C)C)C(=O)O)n(C)c(=O)c3c2)n1 (atropisomer, axis not shown; (M)) [Example 208, (2S)(M)-[(1,1-dimethylethyl)oxy]{4-(8-fluoro-5-methyl-3,4-dihydro-2H-chromen-6-yl)-2-methyl-7-[6-(methyloxy)-2-pyridinyl]-1-oxo-1,2-dihydro-3-isoquinolinyl}ethanoic acid]",40,
"COCCOc1ccc2c(-c3ccc4c(c3C)CCCO4)c(C(OC(C)(C)C)C(=O)O)n(C)c(=O)c2c1 (centres unmarked) [Example 81, 2-(tert-butoxy)-2-[7-(2-methoxyethoxy)-2-methyl-4-(5-methyl-3,4-dihydro-2H-1-benzopyran-6-yl)-1-oxo-1,2-dihydroisoquinolin-3-yl]acetic acid]",440,
"CCOc1ccc(-c2c(C(OC(C)(C)C)C(=O)O)n(C)c(=O)c3ccccc23)cc1 (centres unmarked) [Example 42, 2-(tert-butoxy)-2-[4-(4-ethoxyphenyl)-2-methyl-1-oxo-1,2-dihydroisoquinolin-3-yl]acetic acid]",33300,
"Cc1c(-c2c(C(OC(C)(C)C)C(=O)O)n(C)c(=O)c3cc(OCCF)ccc23)ccc2c1CCCO2 (centres unmarked) [Example 89, 2-(tert-butoxy)-2-[7-(2-fluoroethoxy)-2-methyl-4-(5-methyl-3,4-dihydro-2H-1-benzopyran-6-yl)-1-oxo-1,2-dihydroisoquinolin-3-yl]acetic acid]",400,
"Cn1cc(-c2c(C(OC(C)(C)C)C(=O)O)n(C)c(=O)c3ccccc23)cn1 (centres unmarked) [Example 157, [(1,1-dimethylethyl)oxy][2-methyl-4-(1-methyl-1H-pyrazol-4-yl)-1-oxo-1,2-dihydro-3-isoquinolinyl]acetic acid]",41600,
"Cc1c(-c2c(C(OC(C)(C)C)C(=O)O)n(C)c(=O)c3cc(F)ccc23)cc(F)c2c1CCCO2 (centres unmarked) [Example 92, 2-(tert-butoxy)-2-[7-fluoro-4-(8-fluoro-5-methyl-3,4-dihydro-2H-1-benzopyran-6-yl)-2-methyl-1-oxo-1,2-dihydroisoquinolin-3-yl]acetic acid]",140,

# Source: US9029391B2 (priority 2011, dated 2015)
